Measurements: article PMC7664879, “Discovery of 12O—A Novel Oral Multi-Kinase Inhibitor for the Treatment of Solid Tumor” (Molecules, 2020)

Experiments:
OVCAR-5 = assay: CCK-8 cell growth inhibition, OVCAR-5; assay type: cell-based, human; conditions: Homo sapiens, OVCAR-5; ovarian cancer; CCK-8 assay, 72-h incubation
Description: In vitro anticancer screening of all newly synthesized compounds towards human solid tumor cells, cervical (SiHa) and ovarian (SKOV3) cancer cell lines, was carried out by standard CCK-8 assay with cisplatin as the positive control, as cisplatin is one of the most used chemotherapy drugs. […] The compound was further evaluated in a dose response study against a panel of solid tumor cells, including cervical cancer cell lines (SiHa and HeLa), ovarian cancer cell lines (SKOV3 and OVCAR-5), breast cancer cell lines (4T1 and MCF-7), lung cancer cell lines (A549 and H460) to test cytotoxic activity. The IC50 values were summarized in Table 2, including the cytotoxic activity of the cisplatin used as reference compound.
The viability of cells as determined using the CCK8 assay method. Cells were seeded (2000–3000 cells per well) in 96-well plates. After incubation for 24 h in serum-containing media, the cells were treated with drugs at different concentrations diluted with culture medium for 72 h at 37 °C with a 5% CO2 atmosphere. […] Finally, absorbance values of test wells (AS), control wells (AC) and blank wells (Ab) at 450 nm were read using the Microplate Reader (Promega, WI). Inhibition ratios were calculated as follows: [(AC − AS)/ (AC−Ab)] × 100%. IC50 values were calculated using GraphPad software.

SiHa xenograft = SiHa xenograft mouse model, oral dosing; assay type: in vivo; conditions: for Tumor growth inhibition (TGI): SiHa xenograft mice, every day
Description: Based on a desirable set of in vitro properties, 12O was finally selected for further in vivo evaluation. We proceeded to test the antitumor efficacy of 12O in SiHa xenograft mice. Animals were orally given three doses (5, 10, and 20 mg Kg^−1) of 12O, one dose (20 mg Kg^−1) of cisplatin (positive control), or vehicle (control) every day. […] Of note, In Figure 5c, an obvious decrease in tumor size was also observed at the end of observation. The average tumor weight (Figure 5d) of the 12O-treated group was less than that of cisplatin. HE staining was further performed to identify the efficacy of 12O (Figure 5e). […] Additional kinase activities of 12O intimately associated with the growth, survival, and metastasis in tumor cells, may contribute to the antitumor activity, but may also cause side effects. Multi-target kinase inhibitor extensively used in clinic cancer therapy, while hampered by associated adverse reactions and side-effect. Thus, further evidence is needed. An in-depth study of compound 12O is ongoing in our laboratory and will be reported in due course.
All animal studies were conducted under the approval of the Experimental Animal Management Committee of Nankai University (No. NKUEC20190228). Six- to eight-week-old female BALB/c nude mice were purchased from Beijing HFK Bioscience Company. Mice were fed in an SPF-level laboratory animal room. The mice were kept in independent ventilation cages with autoclaved corncobs at the bottom of the cage as bedding. The dimensions of the cages were 390 × 180 × 180 mm. Environmental factors: Average air temperature ranged from 20 to 26 °C with average relative air humidity ranging from 40 to 70%. Noise was below 60 decibels. Ventilation times were more than 15 times/hour. Air velocity was 0.1~0.2m/s. The ammonia concentration was below 14/(mg/m³). Working illumination was 150~300LX and animal illumination was 15~20LX. The nutritional components of mouse food include: water content: ≤10%, crude protein: ≥18%, crude fat: ≥4%, crude fiber: ≥5%, minerals: ≥4%, calcium: 1.0–1.8%, Phosphorus: 0.6-1.2%. The water that mice drink is sterilized by the animal drinking system.
Cells SiHa were harvested during the exponential-growth phase, washed 3 times with serum-free medium, followed by resuspension at a concentration of 2 × 10^6 per mL. A total of 100 μL of cell suspension was injected into SCID mice subcutaneously. After the tumors had grown to 100−150 mm^3, all the mice were randomized into 5 groups (5 mice for each group, 25 mice total). The mice were treated daily via oral gavage administration with 12O (5, 10, or 20 mg kg^−1 d^−1), cisplatin (20 mg kg^−1 d^−1), or vehicle. […] Mice were monitored for side effects every day. Body weights and tumor sizes were determined every other day and volume was also observed. At the end-point of the study, all mice had survived. Mice were euthanized and the subcutaneous tumor tissues were stripped and collected. Tumor measurements were calculated using a digital vernier caliper, and the volumes were determined using the following calculation: (short^2) × long × 0.5. Inhibition rate of tumor growth was calculated using the following formula: 100 × {1 − [(tumor volume final-tumor volume initial) for 12O-treated group]/ [(tumor volume final-tumor volume initial) for the vehicle-treated group]} [23].

PDGFR-beta(h) = molecular target: T1, PDGFR-beta(h) (Homo sapiens, UniProt P09619); assay: Kinase inhibition assay (Eurofins KinaseProfiler); assay type: biochemical; conditions: ATP at Km
T1 construct: purchased Eurofins (KinaseProfiler service)
T1 sequence (P09619 33-1106): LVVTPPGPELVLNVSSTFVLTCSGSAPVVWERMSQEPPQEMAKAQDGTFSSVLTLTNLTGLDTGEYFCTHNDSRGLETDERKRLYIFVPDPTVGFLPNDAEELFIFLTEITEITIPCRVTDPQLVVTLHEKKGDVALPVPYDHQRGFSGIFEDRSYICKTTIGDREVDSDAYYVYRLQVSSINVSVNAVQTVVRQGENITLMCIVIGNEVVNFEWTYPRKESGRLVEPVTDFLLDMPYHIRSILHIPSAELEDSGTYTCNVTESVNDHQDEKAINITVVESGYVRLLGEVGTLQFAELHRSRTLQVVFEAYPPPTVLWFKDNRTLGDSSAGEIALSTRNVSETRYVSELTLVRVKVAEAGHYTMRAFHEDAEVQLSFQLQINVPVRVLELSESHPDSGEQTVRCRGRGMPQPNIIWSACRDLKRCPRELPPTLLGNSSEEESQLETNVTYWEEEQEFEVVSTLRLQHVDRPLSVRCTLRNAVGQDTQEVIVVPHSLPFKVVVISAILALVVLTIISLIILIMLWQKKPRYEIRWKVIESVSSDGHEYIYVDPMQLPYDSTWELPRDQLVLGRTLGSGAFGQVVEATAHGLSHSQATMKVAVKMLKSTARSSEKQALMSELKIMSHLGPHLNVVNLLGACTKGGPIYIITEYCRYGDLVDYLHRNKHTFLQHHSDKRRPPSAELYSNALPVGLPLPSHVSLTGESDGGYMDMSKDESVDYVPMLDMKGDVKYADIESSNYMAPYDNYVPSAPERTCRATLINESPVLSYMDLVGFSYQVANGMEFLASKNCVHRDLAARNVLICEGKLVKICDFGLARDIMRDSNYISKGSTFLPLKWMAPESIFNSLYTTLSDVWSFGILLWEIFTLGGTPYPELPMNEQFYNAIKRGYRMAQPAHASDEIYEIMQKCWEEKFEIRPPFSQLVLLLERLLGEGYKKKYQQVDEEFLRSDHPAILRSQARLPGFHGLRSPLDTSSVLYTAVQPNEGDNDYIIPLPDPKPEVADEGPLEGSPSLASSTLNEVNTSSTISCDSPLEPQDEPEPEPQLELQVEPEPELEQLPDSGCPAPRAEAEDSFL
Description: (§1) Kinase inhibition profiles were determined using KinaseProfiler services provided by Eurofins, and ATP concentrations used are the Km of corresponding kinases.
(§2) PDGFR-alfa(h) [PDGFR-beta(h)] was incubated with 8 mM MOPS pH 7.0, 0.2 mM EDTA, 0.1 mg/mL poly(Glu, Tyr) 4:1, 10 mM MnCl2, 10 mM MgAcetate and [gamma-33P]-ATP.
(§3) All the reactions above were initiated by the addition of the Mg/ATP mix. After incubation for 40 min at room temperature, the reaction was stopped by the addition of phosphoric acid to a concentration of 0.5%. An amount of 10 µL of the reaction was then spotted onto a P30 filtermat and washed four times for 4 min in 0.425% phosphoric acid and once in methanol prior to drying and scintillation counting.

PDGFR-alfa(h) = molecular target: T2, PDGFR-alfa(h) (Homo sapiens, UniProt P16234); assay: Kinase inhibition assay (Eurofins KinaseProfiler); assay type: biochemical; conditions: ATP at Km
T2 construct: purchased Eurofins (KinaseProfiler service)
T2 sequence (P16234 24-1089): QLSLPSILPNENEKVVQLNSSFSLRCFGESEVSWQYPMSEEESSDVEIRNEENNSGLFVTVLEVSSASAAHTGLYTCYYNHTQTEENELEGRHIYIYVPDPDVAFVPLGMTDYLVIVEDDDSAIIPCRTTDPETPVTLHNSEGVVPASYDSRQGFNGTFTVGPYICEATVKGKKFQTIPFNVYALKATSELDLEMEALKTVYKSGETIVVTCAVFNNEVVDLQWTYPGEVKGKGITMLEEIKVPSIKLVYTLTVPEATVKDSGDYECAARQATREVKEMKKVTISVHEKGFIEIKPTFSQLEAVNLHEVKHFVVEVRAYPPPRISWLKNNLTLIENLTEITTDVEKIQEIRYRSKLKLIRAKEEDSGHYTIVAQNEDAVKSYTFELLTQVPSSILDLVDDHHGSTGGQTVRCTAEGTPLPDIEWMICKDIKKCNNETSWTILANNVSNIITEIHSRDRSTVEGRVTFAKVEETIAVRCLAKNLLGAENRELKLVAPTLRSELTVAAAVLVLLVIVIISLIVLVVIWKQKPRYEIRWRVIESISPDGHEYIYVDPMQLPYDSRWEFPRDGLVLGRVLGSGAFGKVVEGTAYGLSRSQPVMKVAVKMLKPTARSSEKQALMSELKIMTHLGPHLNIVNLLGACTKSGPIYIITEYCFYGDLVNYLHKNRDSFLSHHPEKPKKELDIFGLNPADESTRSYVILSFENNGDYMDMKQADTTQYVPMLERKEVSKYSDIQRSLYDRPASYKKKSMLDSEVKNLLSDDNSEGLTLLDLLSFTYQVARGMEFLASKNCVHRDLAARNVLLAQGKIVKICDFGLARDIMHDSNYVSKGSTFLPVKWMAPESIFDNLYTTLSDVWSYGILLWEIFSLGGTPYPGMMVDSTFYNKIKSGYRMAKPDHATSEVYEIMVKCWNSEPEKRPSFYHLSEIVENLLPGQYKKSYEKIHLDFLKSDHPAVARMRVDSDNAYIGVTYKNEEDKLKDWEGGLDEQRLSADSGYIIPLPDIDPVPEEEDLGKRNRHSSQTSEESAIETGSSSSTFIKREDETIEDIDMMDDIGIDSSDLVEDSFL
Description: as §1, §2, §3

SiHa cells = assay: Cell cycle assay (propidium iodide, flow cytometry); assay type: cell-based, human; conditions: 0.04 μM, 24 h
Description: To understand how 12O inhibited cell proliferation, cell cycle analysis was performed. The effect of 12O on cell cycle distribution was assessed in the SiHa cell lines. […] Of note, 12O at 0.04 μM was able to increase the proportion of the cells in the G2/M phase from approximately 16.0 ± 1.3% (DMSO) to 22.3 ± 0.7%, and decreased the corresponding fraction of the cells in the S phase from about 22.8 ± 0.4 % (DMSO) to 16.1 ± 1.1 % (Figure 3).
Cells were plated on 6-well culture plates at a density of 5 × 10^5 cells/mL. The cells were treated with the indicated concentrations of 12O or ribociclib for 24 h after their adherence. Cells were washed with PBS for three times and then fixed with ice cold 75% ethanol overnight. The fixed cells were then washed with PBS and stained with propidium iodide ([…]) in the presence of RNase A (0.5 mg) for 30 min at 37 °C. The stained cells were then subjected to flow cytometry (Becton Dickinson (BD), San Jose, CA, USA.) for cell cycle analysis.

Q: CC(C)n1nnc2ccc(-c3nc(Nc4ccc(CNC(=O)C5(C(=O)Nc6ccccc6)CC5)cc4)ncc3F)cc21 [12O] was tested. Which IC50 (OVCAR-5) did it give?
A: Its IC50 is 0.052 µM.

Q: What about the “Tumor growth inhibition (TGI)” value (SiHa xenograft; 5 mg/kg oral) of the same compound?
A: The value was 51.25%.

Q: And the “Tumor growth inhibition (TGI)” value (SiHa xenograft; 10 mg/kg oral)?
A: Its value is 65.52%.

Q: And the “Tumor growth inhibition (TGI)” value (SiHa xenograft; 20 mg/kg oral)?
A: Its value is 79.29%.

Q: And the “toxicity in treated mice (body weight)” value (SiHa xenograft; SiHa xenograft mice, 5, 10 and 20 mg/kg oral daily)?
A: Its value is “without obvious toxicity”.

Q: What about the inhibition at 1 µM (PDGFR-beta(h)) of the same compound?
A: Its inhibition at 1 µM is 12%.

Q: What about the inhibition at 1 µM (PDGFR-alfa(h)) of the same compound?
A: The inhibition at 1 µM was -1%.

Q: And the “proportion of the cells in the G2/M phase” value (SiHa cells; DMSO 16.0 ± 1.3%)?
A: Its value is 22.3 ± 0.7%.

Q: What about the “fraction of the cells in the S phase” value (SiHa cells; DMSO 22.8 ± 0.4 %) of the same compound?
A: Its value is 16.1 ± 1.1%.
